Measured values as given in patent US20030211457A1, “Methods and kits for testing mutagenicity” (Transgenomic, Inc., priority 2002, published 2003).
Several values for one entry are separate records, joined by “and”; a condition that tells them apart may be missing. Equal entries are not always repeated. Where two headings read alike, the source gives them in different places.

How the values were obtained:
[1] = tested on: TA 1535; details: TA1535; azide levels 0.08, 0.2, 0.66, 2.0 and 6 ug; 1.5 hours at 37° C. then 18 hrs selective enrichment; no heteroduplex in vehicle control
Method: Reactions were performed in sterile 1.5 ml microfuge tubes. Each tube contained: In a first stage incubation, 1 ul of overnight culture of TA 1535; 6.5 ul LB; 15 ul H2O (or S9); 67.5 ul M9 (−histidine+biotin). These four components are added from a master mix to the microfuge tubes. […] The mixture was incubated 1.5 hours at 37° C. The lids of the tubes were closed, but ventilated by piercing with a needle, for aeration. In a second stage incubation, 800 ul of Selective Enrichment Media was added, and the mixture is incubated for 18 hrs without shaking.
Selective Enrichment Media was prepared in a final volume of 900 ml as follows:
The media was autoclaved and cooled to room temperature. 90 ml of autoclaved 20% glucose was added. Prior to use, Biotin (Sigma) was added from a 400× stock (1.25M) to a final concentration of 1×.
A 1 ul aliquot was used in a “Hot start” PCR amplification with a final denaturation/renaturation step followed by analysis by DHPLC. Each dose was processed in quadruplicate.
For TA1535, the following 342 bp amplicon from the hisG gene was prepared:
In the PCR, the forward primer was [sequence] (SEQ ID NO: 2) and the reverse primer was [sequence] (SEQ ID NO: 3). The DNA polymerase was Optimase™ polymerase. The PCR conditions were as follows: […]

[2] = tested on: TA 1535; details: TA1535, 1.5-hour exposure, plates incubated 2 days at 37° C., two columns of counts
Method: For comparative purposes, Ames modified plate assay were performed. […] After the 1.5-hour exposure, the incubation was add to 2 ml of melted top agar, containing limited histidine and biotin, equilibrated to 50° C. (MOLTOX catalog no. 26-503) and plated on minimal plates lacking histidine (MOLTOX catalog no.21-400). The plates were incubated 2 days at 37° C. and revertant colonies counted as shown:

[N-]=[N+]=[N-] [sodium azide]
DNA back-mutation at the hot spot (heteroduplex by DHPLC) [1]: caused DNA back-mutation at the hot spot | no. revertant colonies ([2]; NaN3 exposure amount 0.08 ug): 3 and 5 | no. revertant colonies ([2]; NaN3 exposure amount 0.2 ug): 13 | no. revertant colonies ([2]; NaN3 exposure amount 0.6 ug): 15 and 27 | no. revertant colonies ([2]; NaN3 exposure amount 2 ug): 39 and 66 | no. revertant colonies ([2]; NaN3 exposure amount 6 ug): >100
